Laboratory results taken from patent publication US20150307461A1, “ANTIVIRAL COMPOUNDS” (priority 2012, published 2015).

Legend:
Assay in all cases: microbe, parasite or virus in culture
[1] = test system: Pseudotyped HCV GT1b particles (HCVpp); type: cell-based, HCV GT1b Con1 strain; conditions: Hepatitis C virus, 72 h, read-out: HCVpp GT-1b (EC50, μM)
[2] = test system: pseudotyped VSV G particles (VSVpp); type: cell-based; conditions: Vesicular stomatitis virus, 72 h, read-out: VSVpp (EC50, μM)
[3] = test system: Pseudotyped HCV GT1a particles (HCVpp); type: cell-based, HCV GT1a H77 strain; conditions: Hepatitis C virus, 72 h, read-out: HCVpp GT-1a (EC50, μM)

| Compound | EC50 [1] | EC50 [2] | EC50 [3] |
| --- | --- | --- | --- |
| N#Cc1c(Cl)cc(Nc2n[nH]c(N)n2)cc1Cl [Compound I-2, 4-(5-Amino-1H-[1,2,4]triazol-3-ylamino)-2,6-dichloro-benzonitrile] | 0.277 µM | 64.6 µM | 0.009 µM |
| Nc1nc(Nc2cc(Cl)c(I)c(Cl)c2)n[nH]1 [Compound I-3, N^3-(3,5-Dichloro-4-iodo-phenyl)-1H-[1,2,4]triazole-3,5-diamine] | 0.386 µM | 32.7 µM | 0.012 µM |
| Nc1nc(Nc2cccc(S(=O)(=O)C(F)(F)F)c2)n[nH]1 [Compound I-4, N^3-(3-Trifluoromethanesulfonyl-phenyl)-1H-[1,2,4]triazole-3,5-diamine] | 0.823 µM | 100 µM | 0.412 µM |
| CC(C)(C)c1cccc(Nc2n[nH]c(N)n2)c1 [Compound I-6, N^3-(3-tert-Butyl-phenyl)-1H-[1,2,4]triazole-3,5-diamine] | 1.59 µM | 100 µM | 0.948 µM |
| Nc1nc(Nc2ccc(S(=O)(=O)C(F)(F)F)c(Cl)c2)n[nH]1 [Compound I-7, N*3*-(3-Chloro-4-trifluoromethanesulfonyl-phenyl)-1H-[1,2,4]triazole-3,5-diamine] | 0.91 µM | 100 µM | 1.28 µM |
| Nc1nc(Nc2ccc([N+](=O)[O-])c(Cl)c2)n[nH]1 [Compound I-8, N*3*-(3-Chloro-4-nitro-phenyl)-1H-[1,2,4]triazole-3,5-diamine] | 1.15 µM | 98.1 µM | 0.141 µM |
| C#Cc1ccc(Nc2n[nH]c(N)n2)cc1Cl [Compound I-9, N*3*-(3-Chloro-4-ethynyl-phenyl)-1H-[1,2,4]triazole-3,5-diamine] | 3.08 µM | 45.5 µM | 0.161 µM |
| Nc1nc(Nc2ccc(C(F)(F)F)c(Cl)c2)n[nH]1 [Compound I-10, N*3*-(3-Chloro-4-trifluoromethyl-phenyl)-1H-[1,2,4]triazole-3,5-diamine] | 5.14 µM | 100 µM | 0.368 µM |
| Nc1nc(Nc2cc(Cl)c(Cl)c(Cl)c2)n[nH]1 [Compound I-11, N*3*-(3,4,5-Trichloro-phenyl)-1H-[1,2,4]triazole-3,5-diamine] | 4.68 µM | 100 µM | 0.166 µM |
| N#Cc1ccc(Nc2n[nH]c(N)n2)cc1Cl [Compound I-12, 4-(5-Amino-1H-[1,2,4]triazol-3-ylamino)-2-chloro-benzonitrile] | 4.19 µM | 100 µM | 0.335 µM |
| Nc1nc(Nc2ccc(Cl)c([N+](=O)[O-])c2)n[nH]1 [Compound I-13, N*3*-(4-Chloro-3-nitro-phenyl)-1H-[1,2,4]triazole-3,5-diamine] | 4.85 µM | 100 µM | 0.539 µM |
| Nc1nc(Nc2ccc(C#Cc3ccccc3)c(Cl)c2)n[nH]1 [Compound I-14, N*3*-(3-Chloro-4-phenylethynyl-phenyl)-1H-[1,2,4]triazole-3,5-diamine] | 32.7 µM | 100 µM | 5.34 µM |
| Nc1nc(Nc2cccc(Br)c2)n[nH]1 [Compound I-15, N*3*-(3-Bromo-phenyl)-1H-[1,2,4]triazole-3,5-diamine] | 18.1 µM | 100 µM | 1.41 µM |
| CC(C)(C)c1cc(Nc2n[nH]c(N)n2)ccc1C#N [Compound I-16, 4-(5-Amino-1H-[1,2,4]triazol-3-ylamino)-2-tert-butyl-benzonitrile] | 16.1 µM | 100 µM | 5.34 µM |
| Nc1nc(Nc2ccc(S(=O)(=O)C(F)(F)F)cc2)n[nH]1 [Compound I-17, N*3*-(4-Trifluoromethanesulfonyl-phenyl)-1H-[1,2,4]triazole-3,5-diamine] | 14.2 µM | 100 µM | 12.6 µM |
| Nc1nc(Nc2ccc3ccccc3c2)n[nH]1 [Compound I-18, N*3*-Naphthalen-2-yl-1H-[1,2,4]triazole-3,5-diamine] | 27.5 µM | 100 µM | 2.95 µM |
| CC(C)(C)c1cc(Nc2n[nH]c(N)n2)cc(C(C)(C)C)c1 [Compound I-19, N*3*-(3,5-Di-tert-butyl-phenyl)-1H-[1,2,4]triazole-3,5-diamine] | 56.8 µM | 87.8 µM | 44.7 µM |
| CS(=O)(=O)c1ccc(Nc2n[nH]c(N)n2)cc1 [Compound I-20, N*3*-(4-Methanesulfonyl-phenyl)-1H-[1,2,4]triazole-3,5-diamine] | 100 µM | 100 µM | 90.6 µM |
| CS(=O)(=O)c1cccc(Nc2n[nH]c(N)n2)c1 [Compound I-21, N*3*-(3-Methanesulfonyl-phenyl)-1H-[1,2,4]triazole-3,5-diamine] | 41.4 µM | 100 µM | 12.6 µM |
| CNS(=O)(=O)c1ccc(Nc2n[nH]c(N)n2)cc1 [Compound I-22, 4-(5-Amino-1H-[1,2,4]triazol-3-ylamino)-N-methyl-benzenesulfonamide] | 100 µM | 100 µM | 100 µM |

| Compound | EC50 [1] | EC50 [2] | EC50 [3] |
| --- | --- | --- | --- |
| Nc1nc(Nc2ccc(C(=O)N3CCOCC3)cc2)n[nH]1 [Compound I-23, [4-(5-Amino-1H-[1,2,4]triazol-3-ylamino)-phenyl]-morpholin-4-yl-methanone] | 100 µM | 100 µM | 100 µM |
| CN(C)C(=O)c1ccc(Nc2n[nH]c(N)n2)cc1 [Compound I-24, 4-(5-Amino-1H-[1,2,4]triazol-3-ylamino)-N,N-dimethyl-benzamide] | 100 µM | 100 µM | 100 µM |
| Nc1nc(Nc2ccc(S(N)(=O)=O)cc2)n[nH]1 [Compound I-25, 4-(5-Amino-1H-[1,2,4]triazol-3-ylamino)-benzenesulfonamide] | 100 µM | 100 µM | 86.4 µM |
| CN(C)S(=O)(=O)c1ccc(Nc2n[nH]c(N)n2)cc1 [Compound I-26, 4-(5-Amino-1H-[1,2,4]triazol-3-ylamino)-N,N-dimethyl-benzenesulfonamide] | 100 µM | 100 µM | 100 µM |
| N#Cc1ccc(Nc2n[nH]c(N)n2)cc1C1CC1 [Compound I-35, 4-(5-Amino-1H-1,2,4-triazol-3-ylamino)-2-cyclopropylbenzonitrile] | 1.73 µM | 62.8 µM | 0.34 µM |
| Nc1nc(Nc2cccc(Cl)c2)n[nH]1 [Compound I-36, N*3*-(3-Chloro-phenyl)-1H-[1,2,4]triazole-3,5-diamine] | 28.6 µM | 100 µM | 1.84 µM |
| Nc1nc(Nc2ccc(OCc3ccccc3)c(Cl)c2)n[nH]1 [Compound I-37, N*3*-(4-Benzyloxy-3-chloro-phenyl)-1H-[1,2,4]triazole-3,5-diamine] | 13.4 µM | 33.3 µM | 0.92 µM |
| Cc1c(Cl)cc(Nc2n[nH]c(N)n2)cc1Cl [Compound I-38, N*3*-(3,5-Dichloro-4-methyl-phenyl)-1H-[1,2,4]triazole-3,5-diamine] | 0.75 µM | 79.4 µM | 0.023 µM |
| Nc1nc(Nc2cc(Cl)cc(Cl)c2)n[nH]1 [Compound I-41, 3-Amino-5-(3,5-Dichloroanilino)-S-triazole] | 1.61 µM |  | 0.138 µM |
| Nc1nc(Nc2cc(Cl)c(Br)c(C(F)(F)F)c2)n[nH]1 [Compound I-42, N3-(4-bromo-3-chloro-5-(trifluoromethyl)phenyl)-1H-1,2,4-triazole-3,5-diamine] | 0.404 µM |  | 0.081 µM |
| C=Cc1c(Cl)cc(Nc2n[nH]c(N)n2)cc1Cl [Compound I-67, N^3-(3,5-Dichloro-4-vinyl-phenyl)-1H-[1,2,4]triazole-3,5-diamine] | 0.685 µM | 100 µM |  |
| N#Cc1c(F)cc(Nc2nc(N)n[nH]2)cc1C(F)(F)F [Compound I-68, 4-(5-Amino-2H-[1,2,4]triazol-3-ylamino)-2-fluoro-6-trifluoromethyl-benzonitrile] | 0.161 µM | 43.3 µM |  |
| N#Cc1c(F)cc(Nc2nc(N)n[nH]2)cc1F [Compound I-69, 4-(5-Amino-2H-[1,2,4]triazol-3-ylamino)-2-difluoro-benzonitrile] | 0.561 µM | 100 µM |  |
| CS(=O)(=O)c1ccc(Nc2n[nH]c(N)n2)cc1Cl [Compound I-77, N^3-(3-Chloro-4-methanesulfonyl-phenyl)-1H-[1,2,4]triazole-3,5-diamine] | 20.4 µM |  | 1.59 µM |
| Nc1nc(Nc2ccc(Br)c(S(F)(F)(F)(F)F)c2)n[nH]1 [Compound I-81, N*3*-(4-Bromo-3-pentafluorosulfur-phenyl)-1H-[1,2,4]triazole-3,5-diamine] | 0.527 µM | 34 µM |  |
| Nc1nc(Nc2cc(Br)cc(S(F)(F)(F)(F)F)c2)n[nH]1 [Compound I-82, N*3*-(3-Bromo-5-pentafluorosulfur-phenyl)-1H-[1,2,4]triazole-3,5-diamine] | 0.918 µM | 57.5 µM |  |
| N#CCc1c(Cl)cc(Nc2n[nH]c(N)n2)cc1C(F)(F)F [Compound I-84, 2-(4-(5-amino-1H-1,2,4-triazol-3-ylamino)-2-chloro-6-(trifluoromethyl)phenyl)acetonitrile] | 0.628 µM | 42.1 µM |  |
| N#Cc1ccc(Nc2n[nH]c(N)n2)cc1S(F)(F)(F)(F)F [Compound I-85, 4-(5-Amino-1H-[1,2,4]triazol-3-ylamino)-2-pentafluorosulfur-benzonitrile] | 0.287 µM | > 10 µM |  |
| N#Cc1c(F)cc(Nc2n[nH]c(N)n2)cc1S(F)(F)(F)(F)F [Compound I-86, 4-(5-Amino-1H-[1,2,4]triazol-3-ylamino)-2-fluoro-6-pentafluorosulfur-benzonitrile] | 0.104 µM | > 10 µM |  |
| N#Cc1c(NN)cc(Nc2n[nH]c(N)n2)cc1S(F)(F)(F)(F)F [Compound I-87, 4-(5-Amino-1H-[1,2,4]triazol-3-ylamino)-2-hydrazino-6-pentafluorosulfur-benzonitrile] | 1.65 µM | > 10 µM |  |
